Reference: patent US10633389B2, “CARM1 inhibitors and uses thereof” (Epizyme, Inc., priority 2013, dated 2020)

What follows are compounds tested on asymmetric di-methyl PABP1 in RKO cells (assay: RKO methylation assay, In Cell Western (ICW) for asymmetric di-methyl PABP1). Conditions: Homo sapiens, RKO, Cellular potencies, ICW PABP1me2a.
Format: cell-based
Text: RKO adherent cells were purchased from ATCC (American Type Culture Collection), Manassas, Va., USA. DMEM/Glutamax medium, penicillin-streptomycin, heat inactivated fetal bovine serum, 0.05% trypsin and D-PBS were purchased from Life Technologies, Grand Island, N.Y., USA. Odyssey blocking buffer, 800 CW goat anti-rabbit IgG (H+L) antibody, and Licor Odyssey infrared scanner were purchased from Licor Biosciences, Lincoln, Nebr., USA. Asymmetric di-methyl PABP1 antibody was purchased from Cell Signaling Technology, Danvers, Mass., USA. Methanol was purchased from VWR, Franklin, Mass., USA. 10% Tween 20 was purchased from KPL, Inc., Gaithersburg, Md., USA. Paraformaldehyde (PFA) was purchased from EM Sciences. DRAQ5 was purchased from Biostatus Limited, Leicestershire, UK.
RKO adherent cells were maintained in growth medium (DMEM/Glutamax medium supplemented with 10% v/v heat inactivated fetal bovine serum and 100 units/mL penicillin-streptomycin) and cultured at 37° C. under 5% CO2.
Cell treatment, In Cell Western (ICW) for detection of asymmetric di-methyl PABP1 and DNA content: RKO cells were seeded in assay medium at a concentration of 30,000 cells per mL to a poly-D-lysine coated 384 well culture plate (BD Biosciences 356697) with 50 VL per well. Compound (100 nL) from a 96-well source plate was added directly to 384 well cell plate. Plates were incubated at 37° C., 5% CO2 for 48 hours. After two days of incubation, plates were brought to room temperature outside of the incubator for ten minutes and blotted on paper towels to remove cell media. Cells were fixed for 20 minutes at room temperature by adding 50 ul of 8% PFA followed by aspiration of supernatant with the Biotek EL406 plate washer. Cells were then permeabilized by addition of 50 μL of ice cold 100% methanol directly to each well and incubated for 30 min at room temperature. After 30 min, plates were transferred to a Biotek EL406 plate washer and washed 2 times with 100 μL per well of wash buffer (1×PBS). Next 60 μL per well of Odyssey blocking buffer (Odyssey Buffer with 0.1% Tween 20 (v/v)) were added to each plate and incubated 1 hour at room temperature. Blocking buffer was removed and 20 μL per well of primary antibody was added (asymmetric-methyl PABP1) diluted 1:400 in Odyssey buffer with 0.1% Tween 20 (v/v)) and plates were incubated overnight (16 hours) at 4° C. Plates were washed 5 times with 100 μL per well of wash buffer. Next 20 μL per well of secondary antibody was added (1:800 800 CW goat anti-rabbit IgG (H+L) antibody, 1:2000 DRAQ5 in Odyssey buffer with 0.1% Tween 20 (v/v)) and incubated for 1 hour at room temperature. The plates were washed 5 times with 100 μL per well wash buffer then 2 times with 100 μL per well of water. Plates were allowed to dry at room temperature then imaged on the Licor Odyssey machine which measures integrated intensity at 700 nm and 800 nm wavelengths. Both 700 and 800 channels were scanned.
First, the ratio for each well was determined by:
Each plate included fourteen control wells of DMSO only treatment (minimum inhibition) as well as fourteen control wells for maximum inhibition treated with 20 μM of a reference compound. The average of the ratio values for each control type was calculated and used to determine the percent […] for each test well in the plate. Reference compound was serially diluted three-fold in DMSO for a total of nine test concentrations, beginning at 20 μM.
Percent inhibition was determined and IC50 curves were generated using triplicate wells per concentration of compound. […]

SMILES	IC50 [µM]
CNCC(O)COc1cccc(-c2nc(-c3c(C)noc3C)cc(N(C)C3CCOCC3)n2)c1 (centres unmarked) [Example 1-1a]	< 5
CNCC(O)COc1cccc(-c2nc(NC3CNC3)c(C)c(-c3c(C)noc3C)n2)c1 (centres unmarked) [Example 1-3]	≥ 20
CNCC(O)COc1ccc(Cl)c(-c2nc(NC[C@H]3COCCN3C3COC3)c(C)c(-c3c(C)noc3C)n2)c1 (some centres unmarked) [Example 2-3]	< 5
CNCC(O)COc1cccc(-c2nc(N[C@@H]3CCOC3)c(C)c(N3CCOCC3)n2)c1 (some centres unmarked) [Example 3-1]	5 to 10
CNCC(O)COc1cccc(-c2nc(-c3c(C)noc3C)cc(-c3c(C)noc3C)n2)c1 (centres unmarked) [Example 3-1a]	10 to 20
CNCC(O)COc1cccc(-c2nc(NC3CC(F)C3)c(C)c(-c3c(C)noc3C)n2)c1 (centres unmarked) [Example 3-3]	< 5
CNCC(O)COc1cc(Cl)cc(-c2nc(-c3c(C)noc3C)cc(-c3c(C)noc3C)n2)c1 (centres unmarked) [Example 4-1a]	10 to 20
CNCC(O)COc1ccc(Cl)c(-c2nc(N[C@H]3CCN(C(=O)OC)C[C@H]3F)c(C)c(-c3c(C)noc3C)n2)c1 (some centres unmarked) [Example 4-3]	< 5
CNCC(O)COc1cccc(-c2nc(-c3c(C)noc3C)cc(N(C)CCC#N)n2)c1 (centres unmarked) [Example 5-1a]	10 to 20
CNCC(O)COc1cccc(-c2nc(NC3(CO)CC3)c(C)c(-c3c(C)noc3C)n2)c1 (centres unmarked) [Example 5-3]	5 to 10
CNCC(O)COc1cccc(-c2nc(NC3CCOCC3)c(C)c(-c3c(C)noc3C)n2)c1 (centres unmarked) [Example 6-1a]	< 5
CNCC(O)COc1ccc(Cl)c(-c2nc(NC[C@H]3CCCO3)c(C)c(-c3c(C)noc3C)n2)c1 (some centres unmarked) [Example 6-3]	< 5
CNCC(O)COc1cc(Cl)cc(-c2nc(NC3CCOCC3)cc(-c3c(C)noc3C)n2)c1 (centres unmarked) [Example 7-1a]	10 to 20
CNCC(O)COc1ccc(Cl)c(-c2nc(NC[C@@H]3CCCO3)c(C)c(-c3c(C)noc3C)n2)c1 (some centres unmarked) [Example 7-3]	< 5
CNCC(O)COc1cccc(-c2nc(-c3cncnc3)cc(-c3c(C)noc3C)n2)c1 (centres unmarked) [Example 8-1a]	10 to 20
CNCC(O)COc1cccc(-c2nc(NC3(C(F)(F)F)CC3)c(C)c(-c3c(C)noc3C)n2)c1 (centres unmarked) [Example 8-3]	< 5
CNCC(O)COc1cc(Cl)cc(-c2nc(Nc3cncnc3)cc(-c3c(C)noc3C)n2)c1 (centres unmarked) [Example 9-1a]	5 to 10
CNCC(O)COc1ccc(Cl)c(-c2nc(NCC3CCOCC3)c(C)c(-c3c(C)noc3C)n2)c1 (centres unmarked) [Example 9-3]	< 5
CNCC(O)COc1cc(Cl)cc(-c2nc(N[C@@H]3CCOC3)cc(-c3c(C)noc3C)n2)c1 (some centres unmarked) [Example 10-1a]	10 to 20

SMILES	IC50 [µM]
CNCC(O)COc1cccc(-c2nc(N[C@H]3CCC[C@@H](O)C3)c(C)c(-c3c(C)noc3C)n2)c1 (some centres unmarked) [Example 10-3]	< 5
CNCC(O)COc1cccc(-c2nc(N[C@@H]3CCOC3)cc(-c3c(C)noc3C)n2)c1 (some centres unmarked) [Example 11-1a]	5 to 10
CNCC(O)COc1cccc(-c2nc(N[C@@H]3CCOC3)c(C)c(N3CC4CN(S(C)(=O)=O)CC4C3)n2)c1 (some centres unmarked) [Example 11-3]	5 to 10
CNCC(O)COc1cc(Cl)cc(-c2nc(N[C@H]3CCOC3)cc(-c3c(C)noc3C)n2)c1 (some centres unmarked) [Example 12-1a]	10 to 20
CNCC(O)COc1cccc(-c2nc(-c3c(C)noc3C)c(C)c(N3CC(NC(=O)OC)C3)n2)c1 (centres unmarked) [Example 12-3]	< 5
CNCC(O)COc1cccc(-c2nc(N[C@H]3CCOC3)cc(-c3c(C)noc3C)n2)c1 (some centres unmarked) [Example 13-1a]	5 to 10
CNCC(O)COc1cccc(-c2nc(-c3c(C)noc3C)c(C)c(N3CC(NC(=O)N(C)C)C3)n2)c1 (centres unmarked) [Example 13-3]	< 5
CCC(=O)NC1CN(c2nc(-c3cccc(OCC(O)CNC)c3)nc(-c3c(C)noc3C)c2C)C1 (centres unmarked) [Example 14-3]	< 5
Cc1noc(C)c1-c1cc(NC2CCOCC2)nc(-c2cccc(OC[C@@H](O)CN)c2)n1 [Example 15-1a]	10 to 20
CNCC(O)COc1cccc(-c2nc(-c3c(C)noc3C)c(C)c(N3CCC[C@H](N(C)C(=O)OC)C3)n2)c1 (some centres unmarked) [Example 15-3]	5 to 10
Cc1noc(C)c1-c1cc(NC2CCOCC2)nc(-c2cccc(OC[C@H](O)CN)c2)n1 [Example 16-1a]	5 to 10
CCS(=O)(=O)N1CC2(CN(c3nc(-c4cccc(OCC(O)CNC)c4)nc(-c4c(C)noc4C)c3C)C2)C1 (centres unmarked) [Example 16-3]	< 5
CNC[C@H](O)COc1cccc(-c2nc(NC3CCOCC3)cc(-c3c(C)noc3C)n2)c1 [Example 17-1a]	< 5
CNCC(O)COc1cccc(-c2nc(-c3c(C)noc3C)c(C)c(N3CCN(C(=O)OC)C(C(F)F)C3)n2)c1 (centres unmarked) [Example 17-3]	< 5
CNC[C@@H](O)COc1cccc(-c2nc(NC3CCOCC3)cc(-c3c(C)noc3C)n2)c1 [Example 18-1a]	< 5
CNCC(O)COc1cccc(-c2nc(Nc3nccn3C)c(C)c(-c3c(C)noc3C)n2)c1 (centres unmarked) [Example 18-3]	10 to 20
CNCC(O)COc1cccc(-c2nc(-c3c(C)noc3C)cc(N3CCN(C)CC3)n2)c1 (centres unmarked) [Example 19-1a]	10 to 20
CNCC(O)COc1cccc(-c2nc(N[C@H]3C[C@@](C)(OC)C3)c(C)c(-c3c(C)noc3C)n2)c1 (some centres unmarked) [Example 19-3]	< 5
CCN1CCN(c2cc(-c3c(C)noc3C)nc(-c3cccc(OCC(O)CNC)c3)n2)CC1 (centres unmarked) [Example 20-1a]	5 to 10

SMILES	IC50 [µM]
CNCC(O)COc1cccc(-c2nc(-c3c(C)noc3C)c(C)c(N(C)[C@H]3C[C@@](C)(OC)C3)n2)c1 (some centres unmarked) [Example 20-3]	< 5
CNCC(O)COc1cccc(-c2nc(Nc3cncnc3)cc(-c3c(C)noc3C)n2)c1 (centres unmarked) [Example 21-1a]	5 to 10
CNCC(O)COc1cc(Cl)cc(-c2nc(NC3CCN(CC(F)F)CC3)c(C)c(-c3c(C)noc3C)n2)c1 (centres unmarked) [Example 21-3]	< 5
CNCC(O)COc1cc(Cl)cc(-c2nc(NC3CCN(C4CC4)CC3)c(C)c(-c3c(C)noc3C)n2)c1 (centres unmarked) [Example 22-3]	< 5
CCOC(=O)N1CCOC[C@H]1CNc1nc(-c2cc(OC[C@@H](O)CNC)ccc2Cl)nc(-c2c(C)noc2C)c1C [Example 24-3]	< 5
CCOC(=O)N1CCOC[C@H]1CNc1nc(-c2cc(OC[C@H](O)CNC)ccc2Cl)nc(-c2c(C)noc2C)c1C [Example 25-3]	< 5
CNCC(O)COc1cccc(-c2nc(N[C@H]3CCOC3)c(C)c(N3CCOCC3)n2)c1 (some centres unmarked) [Example 26-1]	10 to 20
CNC[C@H](O)COc1ccc(F)c(-c2nc(NC3CCN(C(=O)OC)CC3)c(C)c(-c3c(C)noc3C)n2)c1 [Example 26-3]	< 5
CNCC(O)COc1cccc(-c2nc(NC)cc(-c3c(C)noc3C)n2)c1 (centres unmarked) [Example 27-1a]	10 to 20
CCOC(=O)N1CCCCC1CNc1nc(-c2cc(OC[C@@H](O)CNC)ccc2Cl)nc(-c2c(C)noc2C)c1C (some centres unmarked) [Example 27-3]	< 5
CCOC(=O)N1CCN(c2cc(-c3c(C)noc3C)nc(-c3cccc(OCC(O)CNC)c3)n2)CC1 (centres unmarked) [Example 28-1a]	< 5
CCOC(=O)N1CCCCC1CNc1nc(-c2cc(OC[C@H](O)CNC)ccc2Cl)nc(-c2c(C)noc2C)c1C (some centres unmarked) [Example 28-3]	< 5
CNCC(O)COc1cccc(-c2nc(-c3c(C)noc3C)cc(N3CCNC(C(=O)O)C3)n2)c1 (centres unmarked) [Example 29-1a]	10 to 20
CNCC(O)COc1ccc(Cl)c(-c2nc(NC3CCOCC3)c(C)c(-c3c(C)noc3C)n2)c1 (centres unmarked) [Example 29-3]	< 5
CNCC(O)COc1cccc(-c2nc(-c3c(C)noc3C)cc(N3CCN(C4CC4)CC3)n2)c1 (centres unmarked) [Example 30-1a]	< 5
CNCC(O)COc1ccc(Cl)c(-c2nc(NCC3CCOC3)c(C)c(-c3c(C)noc3C)n2)c1 (centres unmarked) [Example 30-3]	< 5
CNCC(O)COc1cccc(-c2nc(NC3CCOC3)cc(-c3c(C)noc3C)n2)c1 (centres unmarked) [Example 31-1a]	5 to 10
CNCC(O)COc1ccc(Cl)c(-c2nc(NCC3CCCCO3)c(C)c(-c3c(C)noc3C)n2)c1 (centres unmarked) [Example 31-3]	< 5
